Experimental data: patent US7425556B2 (priority 2005, dated 2008)

What was measured:
[1] = target: T1, GABAA2 receptors (α2, β3, γ2 receptor subunits) (Homo sapiens, UniProt P18507+P47869); experiment: biochemical; details: [3H]-Flunitrazepam ~2 nM, α2β3γ2 Sf9 membranes, 1 hr at 4° C.; read-out: GABAA2 Binding Ki
T1 construct: host or cells: Sf9 cells (membranes)
Experimental: In some embodiments, the binding test was directed to a subtype of GABAA receptors, such as GABAA1 receptors (i.e., those containing the α1 subunit), GABAA2 receptors (i.e., those containing the α2 subunit), GABAA3 receptors (i.e., those containing the α3 subunit) and GABAA5 receptors (i.e., those containing the α5 subunit).
[formula] Method FF GABAA2 Binding Method Reagents
Assay and Wash Buffer: 50 mM Tris-Citrate, 200 mM NaCl, pH 7.8
Compounds at 10 mM in DMSO: Put 75 μl in column 1 of compound plate.
Flumazenil, 10 mM (for NSB)
[^3H]-Flunitrazepam (Cat #NET567): Prepare 10× stock=20 nM, [F} in assay=˜2 nM
1. […] Add 5 ul of 30 uM flumazenil to wells 12 D-E for 50% control wells.
2. Spot 2 μl of compound dilutions into dry plate (Automation Program 3). Manually spot 2 μl 10 mM flumazenil into wells 12 F-H for nonspecific control.
3. Make 1:100 dilution in assay buffer (2 μl into 200 μl) and dispense 25 μl compound into assay plates (Automation Program 4).
4. Dispense 200 μl membranes into assay plate (Automation Program 5).
5. Add 25 μl [^3H]-Flunitrazepam (Automation Program 6). Incubate for 1 hr at 4° C.
6. Collect membranes on a cell harvester onto GF/B filter plates (pre-wet with dH2O and wash 5×400 μl/well, with cold assay buffer. (First 3 washes are considered hot; last two are cold.)
7. Dry plates for 2-3 hours at RT.
8. Add 40 μl Microsecond 40/well (Automation Program 7); seal plates. Count on a Top Count.
Data is analyzed by calculating percent of control, IC50, and Kid in an Lift template. The following formula is used in the templates: […]

[2] = target: T2, GABAA1 (human α1β2γ2 GABAA receptor) (Homo sapiens, UniProt P14867+P18507); experiment: Two-electrode voltage-clamp in Xenopus oocytes, potentiation of GABA EC10 current, GABAA1; assay type: cell-based; details: percentage potentiation of GABA EC10 current divided by that of diazepam
T2 construct: expressed in transfected cells; host or cells: Xenopus laevis oocytes injected with capped cRNA
From the text: (§1) Presently available GABAA modulator anxiolytics work via interactions at the classical benzodiazepine binding site. To a large degree these anxiolytics lack GABAA receptor subtype-selectivity. The subtype-selective GABAA receptor modulators may offer more advantages. […] Sedation, a side-effect common to all marketed benzodiazepines, is believed to be mediated by interactions at GABAARs containing the α1 subunit. To develop anxiolytics with minimal liabilities due to interactions with other subunits, an electrophysiological assay was developed to screen modulatory effects of various compounds on different GABA subunit combinations heterologously expressed in Xenopus oocytes.
(§2) GABAA receptors were heterologously expressed in Xenopus oocytes by injecting cRNA corresponding to human α1, α2, α3, α5, β2, β3 and γ2 subunits of the GABAA receptor genes. The specific subunit combinations (subtypes) were as follows: α1β2γ2, α2β3γ2, α3β3γ2, and α5β3γ2. The EC10 of GABA was approximated for each cell. Stability of GABA-mediated (EC10) current was established. Modulatory effect of test compound was determined and compared across subtypes. […] Thus, the assay can characterize modulatory effects and determine subtype selectivity of test compounds on major subtypes of GABAA receptors.
(§3) Xenopus laevis frogs (Xenopus I, Kalamazoo, MI) were anesthetized using 0. […] Surgically removed ovarian lobes were teased out in OR2 solution (82 NaCl, 2.5 KCl, 5 HEPES, 1.5 NaH2PO4, 1 MgCl2, 0.1 EDTA, in mM, pH 7.4). The acolytes were deflocculated by incubation in 25 mL OR2 containing 0.2% collagens 1A (SIGMA) two times for about 60 minutes on a platform shaker and stored in Leibovitz's L-15 medium. Acolytes were injected the following day in 0.5× Leibovitz's L-15 medium containing […] gentamycin, 10 units/ml penicillin, and […] streptomycin.
(§4) Capped cRNAs from the linear zed vectors containing human α1, β2 and γ2 subunits of the GABAA receptor genes were mixed in ratio of […]. Acolytes were injected with 25-50 nL of mixed RNA with an appx molar ratio for α1, β2 and γ2 as 1:1:10. Acolyte recordings were done 2-10 days after injection. The same methods apply to subtypes derived from α2β3γ2, α3β3γ2, and α5β3γ2, except for 1:1:1 ratio was used for α, β, and γ subunits.
(§5) All measurements were done in a medium containing ND-96 (96 NaCl, 2 KCl, 1.8 CaCl2.2H2O, 1 MgCl2.6H2O, 5 HEPES, in mM, pH 7.5). Two-electrode voltage-clamp recording was carried out using Opus press amplifier (Axon Instruments, Foster City, Calif.), which allows simultaneous recording from 8 acolytes. Acolytes were impaled with two electrodes of 1-2 MΩ tip resistance when filled with 3M KCl. Recordings were begun when membrane potential became stable at potentials negative to −50-−60 mV. Membrane potential was held at −60 mV. […] The concentration of GABA corresponded to the EC10 value calculated for each acolyte. The modulator pulses started 30 s before the GABA pulse so as to allow preoccupation with the modulator. A set of 3 pulses with just GABA without modulator was given prior to the modulator-containing pulses to define the baseline GABA response. Two acolytes per each experiment were dedicated to observe the effect of diazepam on GABA response to ensure the presence of γ subunit in the GABAA pantomimic complex, which imparts diazepam sensitivity to the complex.
(§6) Current amplitude (i) was measured from baseline to peak using Clamp fit (Axon Inst., Foster City, Calif.). Potentiating was calculated as percent change from the baseline GABA current flux 100×(imod/icontrol)−1) where imod=current mediated by modulator+GABA and icontrol=current mediated by GABA alone. […] Similarly, a value of −50% potentiating means the presence of modulator caused a 50% decrease in the control current.

[3] = target: T3, GABAA2 (human α2β3γ2 GABAA receptor) (Homo sapiens, UniProt P18507+P47869); experiment: Two-electrode voltage-clamp in Xenopus oocytes, potentiation of GABA EC10 current, GABAA2; assay type: cell-based; details: percentage potentiation of GABA EC10 current divided by that of diazepam
T3 construct: expressed in transfected cells; host or cells: Xenopus laevis oocytes injected with capped cRNA
From the text: as §1, §2, §3, §4, §5, §6

T3 sequence (P47869 29-451): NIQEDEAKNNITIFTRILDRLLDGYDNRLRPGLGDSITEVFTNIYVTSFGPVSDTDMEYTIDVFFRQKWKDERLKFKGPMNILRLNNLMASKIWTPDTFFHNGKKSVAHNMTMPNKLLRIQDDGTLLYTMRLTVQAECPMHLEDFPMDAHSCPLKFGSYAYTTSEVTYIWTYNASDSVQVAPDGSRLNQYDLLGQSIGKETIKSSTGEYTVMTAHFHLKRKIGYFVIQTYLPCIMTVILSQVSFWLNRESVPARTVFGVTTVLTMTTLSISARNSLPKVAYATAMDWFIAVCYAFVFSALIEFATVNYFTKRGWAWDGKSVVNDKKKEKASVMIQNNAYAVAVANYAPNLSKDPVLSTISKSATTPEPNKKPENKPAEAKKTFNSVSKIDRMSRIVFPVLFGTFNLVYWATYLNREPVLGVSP
T3 sequence (P28472 26-473 partner): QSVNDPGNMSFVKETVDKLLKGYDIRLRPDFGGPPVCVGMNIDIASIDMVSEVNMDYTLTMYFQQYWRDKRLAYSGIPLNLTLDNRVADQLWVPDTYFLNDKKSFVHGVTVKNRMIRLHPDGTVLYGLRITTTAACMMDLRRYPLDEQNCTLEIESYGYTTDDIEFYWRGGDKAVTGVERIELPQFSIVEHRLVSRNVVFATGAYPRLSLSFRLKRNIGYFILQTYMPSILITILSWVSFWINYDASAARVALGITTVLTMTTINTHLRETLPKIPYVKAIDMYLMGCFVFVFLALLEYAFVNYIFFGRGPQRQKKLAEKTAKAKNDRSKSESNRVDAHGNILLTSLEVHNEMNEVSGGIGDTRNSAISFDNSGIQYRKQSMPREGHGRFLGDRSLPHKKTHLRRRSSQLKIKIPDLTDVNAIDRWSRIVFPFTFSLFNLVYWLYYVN
T3 sequence (P18507 40-475): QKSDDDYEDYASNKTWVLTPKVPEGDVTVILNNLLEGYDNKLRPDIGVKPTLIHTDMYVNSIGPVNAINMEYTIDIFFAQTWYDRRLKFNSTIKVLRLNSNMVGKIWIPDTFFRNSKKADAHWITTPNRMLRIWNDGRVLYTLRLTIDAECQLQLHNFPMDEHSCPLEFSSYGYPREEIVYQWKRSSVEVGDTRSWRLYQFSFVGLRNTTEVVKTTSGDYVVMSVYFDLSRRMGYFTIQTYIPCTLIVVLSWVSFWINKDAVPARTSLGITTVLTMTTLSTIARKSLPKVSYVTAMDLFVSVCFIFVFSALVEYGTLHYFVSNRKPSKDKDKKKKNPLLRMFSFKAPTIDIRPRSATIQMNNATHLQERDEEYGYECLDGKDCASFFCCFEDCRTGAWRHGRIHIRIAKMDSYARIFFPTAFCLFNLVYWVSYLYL
T1 sequence (P47869 29-451): as the sequence (P47869 29-451) above
T1 sequence (P28472 26-473 partner): as the sequence (P28472 26-473 partner) above
T1 sequence (P18507 40-475): as the sequence (P18507 40-475) above
T2 sequence (P14867 28-456): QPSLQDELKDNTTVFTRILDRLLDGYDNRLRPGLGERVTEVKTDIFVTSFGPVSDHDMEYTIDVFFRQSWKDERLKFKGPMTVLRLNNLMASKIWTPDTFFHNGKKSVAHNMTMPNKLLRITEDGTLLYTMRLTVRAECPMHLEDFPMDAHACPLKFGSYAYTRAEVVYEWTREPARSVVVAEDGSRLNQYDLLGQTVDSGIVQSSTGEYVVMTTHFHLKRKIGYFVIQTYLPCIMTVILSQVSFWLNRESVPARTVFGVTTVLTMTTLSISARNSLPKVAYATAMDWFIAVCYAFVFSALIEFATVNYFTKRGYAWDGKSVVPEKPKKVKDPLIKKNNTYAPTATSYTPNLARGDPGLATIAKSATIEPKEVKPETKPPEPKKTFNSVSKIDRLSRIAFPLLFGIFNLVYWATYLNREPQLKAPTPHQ
T2 sequence (P47870 25-512 partner limits assumed): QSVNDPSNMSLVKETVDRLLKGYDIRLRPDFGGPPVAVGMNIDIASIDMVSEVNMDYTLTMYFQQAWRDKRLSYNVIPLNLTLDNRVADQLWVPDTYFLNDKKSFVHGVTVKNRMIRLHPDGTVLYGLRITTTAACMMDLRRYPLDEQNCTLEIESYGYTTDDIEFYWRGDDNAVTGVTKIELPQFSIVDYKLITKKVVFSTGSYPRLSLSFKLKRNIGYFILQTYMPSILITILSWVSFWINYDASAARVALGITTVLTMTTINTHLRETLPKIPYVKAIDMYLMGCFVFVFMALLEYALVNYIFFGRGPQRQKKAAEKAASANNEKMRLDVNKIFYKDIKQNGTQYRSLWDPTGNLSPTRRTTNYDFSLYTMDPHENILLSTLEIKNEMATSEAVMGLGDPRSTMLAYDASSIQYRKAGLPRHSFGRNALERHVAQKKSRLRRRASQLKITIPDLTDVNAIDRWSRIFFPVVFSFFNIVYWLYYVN
T2 sequence (P18507 40-475): as the sequence (P18507 40-475) above

SMILES | Ki [1] | Relative Potentiation for GABAA1 [2] | Relative Potentiation for GABAA2 [3]
CCCNC(=O)c1nnc2c(-c3cn[nH]c3)cccc2c1N | 7.38 nM | −0.063 | 0.1
CCNC(=O)c1nnc2c(-c3cnccc3OC)cccc2c1N | 4.36 nM | −0.02 | 0.28
CCCNC(=O)c1nnc2c(-c3ccc(OC)cc3)cccc2c1N | 15.4 nM | −0.11 | 0.06
CCCNC(=O)c1nnc2c(-c3ccc4[nH]ccc4c3)cccc2c1N | 35 nM | 0.15 | 0.16
CCCNC(=O)c1nnc2c(-c3ccccn3)cccc2c1N | 19.4 nM | 0.027 | −0.032
CCCNC(=O)c1nnc2c(-c3cccc(OC)c3)cccc2c1N | 4.34 nM | 0.13 | 0.22
CCCNC(=O)c1nnc2c(-c3cnc(OC)c(Cl)c3)cccc2c1N | 25.4 nM | 0.086 | 0.04
CCCNC(=O)c1nnc2c(-c3cc(F)ccc3C)cccc2c1N | 5.56 nM | 0.02 | 0.22
CCCNC(=O)c1nnc2c(-c3ccc(N(C)C)cc3)cccc2c1N | 26.6 nM | 0.07 | 0.18
CCCNC(=O)c1nnc2c(-c3ccc(OC)cc3OC)cccc2c1N | 2.5 nM | 0.18 | 0.15
CCCNC(=O)c1nnc2c(-c3cccc(OC)c3F)cccc2c1N | 3.41 nM | 0.045 | 0.26
CCCNC(=O)c1nnc2c(-c3cc(C)ccc3C)c(Cl)ccc2c1N | 11.2 nM | 0.24 | 0.22
CCCNC(=O)c1nnc2c(-c3cccc(OC(F)(F)F)c3)cccc2c1N | 47.8 nM | 0.87 | 0.48
CCCNC(=O)c1nnc2c(-c3cccc(Cl)c3Cl)cccc2c1N | 1.82 nM | 0.067 | 0.053
CCCNC(=O)c1nnc2c(-c3cc(F)cc(F)c3)cccc2c1N | 8.6 nM | −0.018 | 0.26
CCCNC(=O)c1nnc2c(-c3cccnc3F)cccc2c1N | 1.13 nM | −0.083 | 0.17
CCCNC(=O)c1nnc2c(-c3ccc4ccccc4c3)cccc2c1N | 43.3 nM | 0.22 | 0.09
CCCNC(=O)c1nnc2c(-c3ccc(C)nc3)cccc2c1N | 4.11 nM | −0.16 | 0.14
CCCNC(=O)c1nnc2c(-c3cc(C(F)(F)F)cc(C(F)(F)F)c3)cccc2c1N | 356 nM | 0.44 | 0.13
CCCNC(=O)c1nnc2c(-c3cc(OC)ccc3F)cccc2c1N | 1.73 nM | 0.26 | 0.32
CCCNC(=O)c1nnc2c(-c3cccc(C(=O)O)c3)cccc2c1N | 53.8 nM | −0.038 | 0.08
CCCNC(=O)c1nnc2c(-c3cc(Cl)cc(Cl)c3)cccc2c1N | 22 nM | 0.28 | 0.48
CCCNC(=O)c1nnc2c(-c3cc(C)ccc3F)cccc2c1N | 0.852 nM | 0.095 | 0.37
CCCNC(=O)c1nnc2c(-c3ccc(OC)c(F)c3)c(F)ccc2c1N | 2.88 nM | 0.1 | 0.16
COc1cccc(F)c1-c1cccc2c(N)c(C(=O)NC3CC3)nnc12 | 0.698 nM | −0.048 | 0.16
CCCNC(=O)c1nnc2c(-c3cncc(OC)c3)cccc2c1N | 4.21 nM | 0.07 | 0.34
CCCNC(=O)c1nnc2c(-c3cnc(OC)nc3)cccc2c1N | 19.5 nM | −0.066 | 0.11
CCCNC(=O)c1nnc2c(-c3ccccc3C(F)(F)F)cccc2c1N | 0.364 nM | 0.12 | 0.063
CCCNC(=O)c1nnc2c(-c3cc(F)c(OC)cc3F)cccc2c1N | 1.49 nM | 0.016 | 0.21
